Values quoted from earlier work, collected in US8349982B2, “Macromonomers and hydrogels” (William Marsh Rice University, priority 2006, dated 2013).

Conditions: stated as typical

C=CC(=O)OCC(CO)(COC(=O)C=C)COC(=O)CCCCCCCCCCCCCCCCC [PEDAS, Pentaerythritol diacrylate monostearate]
Solubility in water (in words): insoluble in water
